Experimental data published in publication PMC10574351, “First-Row Transition Metal Complexes Incorporating the 2-(2′-pyridyl)quinoxaline Ligand (pqx), as Potent Inflammatory Mediators: Cytotoxic Properties and Biological Activities against the Platelet-Activating Factor (PAF) and Thrombin” (Molecules, 2023).

Assays:
[1] = tested on: HEK293T (human embryonic kidney cells); test: MTT cell viability assay, HEK293T; assay type: cell-based; settings: for IC50: 48 h exposure, mean ± SD; for cytotoxic effect in HEK293T: 48 h
Description: (§1) In this report, cell viability tests were conducted in HEK293T and HeLa cancer cells by means of the colorimetric 3-(4,5-dimethylthiazol-2-yl)-2,5-diphenyl tetrazolium bromide (MTT) assay after exposure for 48 h. A HeLa cancer cell line was selected since it is widely used in cytotoxicity studies. For all complexes, a 10 mM stock solution in DMSO (H2O for cisplatin) was prepared and diluted appropriately to reach the final concentration reported in the Materials and Methods. The non-cancerous HEK293T cell line was used for comparison. The IC50 values of the first-row metal complexes, the pqx ligand and cisplatin, presented herein were calculated using a dose-response model, which was obtained from sigmoidal fitting of dose-response curves.
(§2) The HEK293T cell line (immortalized human embryonic kidney cells) was obtained from the Biomedical Research Foundation Academy of Athens (BRFAA), Athens, Greece and the HeLa cell line (cervical cancer cells) was obtained from the National Centre For Scientific Research Demokritos (NCSR Demokritos), Athens, Greece.
(§3) Pqx metal complexes were diluted in stock solutions of 10 mM in dimethyl sulfoxide (DMSO). A similar concentration of cisplatin dissolved in H2O was used. HEK293T and HeLa cells were cultured in Dulbecco’s modified Eagle’s medium (DMEM) with high glucose (Biosera, Nuaille, France) supplemented with 10% fetal bovine serum at 37 °C and 5% CO2. Cells were seeded in sterile tissue culture 96-well plates (SPL Life Science, Pochon, Republic of Korea) at a density of 3000 cells per well. After 24 h, the medium was removed and replaced with fresh media containing various concentrations (0.01 μΜ, 0.1 μΜ, 1 μΜ, 10 μΜ, 25 μΜ, 40 μΜ, 55 μΜ, 70 μΜ, 85 μΜ and 100 μΜ) of the compounds to be tested and was further incubated for 48 h at 37 °C. Dimethyl sulfoxide (DMSO) was used as a vehicle at ≤1%. To measure cytotoxicity, a culture medium containing the compounds (or DMSO) was removed, and 100 μL of 0.5 mg/mL MTT reagent (Applichem, Darmstadt, Germany) diluted in DMEM was added to the cells for 3 h at 37 °C. After 3 h incubation in identical conditions, MTT was removed and 200 μL of DMSO was added. Absorbance values of formazan were measured at 540 nm using a BioTek Synergy H1 microplate reader (Agilent, Santa Clara, CA, USA). All compounds were tested in triplicate. The results were statistically analyzed using the nonlinear regression by GraphPad PRISM (Version 9).

[2] = tested on: HeLa cells (cervical cancer cells); test: MTT cell viability assay, HeLa; assay type: cell-based, human; settings: for IC50: 48 h exposure, mean ± SD; for cytotoxic effect in HeLa: 48 h, concentrations up to 100 μΜ
Description: as §1, §2, §3

[3] = tested on: thrombin-induced aggregation in washed rabbit platelets (WRPs); test: Inhibition of thrombin-induced aggregation in washed rabbit platelets; assay type: cell-based; settings: for IC50: washed rabbit platelets, mean ± SD, read-out: IC50 (μM) towards Thrombin in WRPs
Description: The biological experiments of PAF-induced platelet aggregation as well as the evaluation of the inhibitory effect of its synthetic compounds were performed according to thoroughly described protocols. The inhibitory effect of the starting materials (pqx = 2-(2′-pyridyl)quinoxaline, CrCl3 × 3H2O, MnCl2 × 4H2O, FeCl2 × 4H2O, CoCl2 × 6H2O, NiCl2 × 6H2O, CuCl2 × 2H2O, ZnCl2) and of the coordination compounds 1–7, towards PAF and thrombin related biological activities (aggregation experiments) in washed rabbit platelets (WRPs) was carried out according to previously described protocols. Briefly, in order to obtain the washed rabbit platelets (WRPs), platelet-rich plasma was washed on Ficoll–Paque cushions and adjusted to […] platelets/mL of Tyrode’s buffer, pH 7.2. The dilution of PAF was prepared using pyrogen-free 0.15 M NaCl containing 2.5 mg/mL of crystallized bovine serum albumin, required for dispersion of PAF. The compounds under investigation were firstly dissolved in the appropriate solvent that is: DMSO for pqx (0.010 M), H2O for CrCl3 × 3H2O (0.016 M), H2O for MnCl2 × 4H2O (0.004 M), DMSO-EtOH (4/1, v/v)) for FeCl2 × 4H2O (0.014 M), H2O for CoCl2 × 6H2O (0.010 M), H2O for NiCl2 × 6H2O (0.010 M), H2O for CuCl2 × 2H2O (0.008 M), H2O for ZnCl2 (0.013 M), DMSO for 1 (0.017 M), DMSO for 2 (0.010 M0, DMSO for 3 (0.004 M), DMSO for 4 (0.002 M), DMSO for 5 (0.003 M), DMSO-EtOH-H2O (25/1/1, v/v)) for 6 (0.006 M), DMSO for 7 (0.002 M) and aliquots of these solutions were then added in solutions (2.5 mg BSA/mL) of saline.
The experiment on the inhibitory effect of each compound of interest against the washed rabbit platelets (WRPs) aggregation was carried out as per the already described method. The platelets were from male New Zealand white rabbits (about 20), individually housed in stainless steel cages in an air-conditioned room (19 ± 1 °C, 55 ± 5% humidity on a 12/12 h artificial light/dark cycle). Blood samples were drawn from the main ear artery. Microliters of PAF in a final concentration of about 10^–10 M were added to the cuvette of the aggregometer, and the height of the platelet aggregation was monitored. The platelet aggregation induced by PAF, or thrombin was measured before (considered as 0% inhibition) and after the addition of various concentrations of the examined sample, creating a linear curve of percentage inhibition (ranging from 0 to 100%) versus different concentrations of the sample. From this curve, the concentration of the sample that inhibited 50% PAF-induced aggregation was calculated, and this value was defined as IC50 (Inhibitory concentration for 50% Inhibition). Dithiothreitol-insensitive PAF choline phosphotransferase, lyso-PAF:acetyl-CoA acetyltransferase and PAF-acetylhydrolase activity assays were performed on the homogenates of rabbit leukocytes while the activity of lipoprotein-associated phospholipase A2 was assessed on plasma as previously described. The experiments were performed in a model 400 vs. aggregometer of Chrono-Log (Havertown, PA, USA) coupled to a Chrono-Log recorder at 37 °C with constant stirring at 1200 rpm. The separation of platelets was performed with centrifugations in a 3L-R Heraeus Labofuge (Hvanau, Germany), a 400R Heraeus Labofuge and an RC-5B Sorvall (Newtown, CT, USA) refrigerated super speed centrifuge. Bovine serum albumin (BSA), PAF and analytical solvents for the biological assays were purchased from Sigma. Standard active thrombin was purchased from Sigma, St. Lewis, MO, USA. The measurements were performed in duplicates for each sample concentration in three different WRP preparations, in order to ensure reproducibility. All experiments were also followed by appropriate control tests of the solvent used (saline solution of BSA, DMSO aliquots in a saline solution of BSA-2.5 mg BSA/mL saline- or just in saline), in WRPs. […]

Row | Compound | IC50 [1] | IC50 [2] | IC50 [3] | cytotoxic effect in HEK293T [1] | cytotoxic effect in HeLa [2] | fold decrease of thrombin IC50 relative to the metal precursor ([3]; complex versus its metal precursor)
1 | CS(C)=O.[Cl][Cu][Cl].c1ccc(-c2cnc3ccccc3n2)nc1 [Complex 3, [Cu(pqx)Cl2(DMSO)]] | 2.1 ± 0.52 µM | 27.2 ± 1.23 µM | 3.1 ± 0.4 µM | – | – | –
2 | [Fe(pqx)Cl2]2 [Complex 6] | 65.8 ± 13.2 µM | 70.9 ± 2.5 µM | 0.46 ± 0.03 µM | – | – | –
3 | mer-[Cr(pqx)Cl3(H2O)] [Complex 1] | 99 ± 6.16 µM | 82.8 ± 3.12 µM | 54.6 ± 10.4 µM | negligible cytotoxic effects | only slightly affected | –
4 | [Mn(pqx)(H2O)2Cl2]2 [Complex 5] | 28.8 ± 6.16 µM | – | 14 ± 2.1 µM | – | practically non-cytotoxic | –
5 | [Ni(pqx)Cl2]2 [Complex 7] | 25.5 ± 8.61 µM | 82.3 ± 9.49 µM | 5.6 ± 0.34 µM | – | only slightly affected | –
6 | [Co(pqx)Cl2(DMF)] [Complex 2] | 67 ± 12.6 µM | 89.1 ± 7.77 µM | 8.9 ± 1.3 µM | – | only slightly affected | –
7 | [Cl][Zn][Cl].c1ccc(-c2cnc3ccccc3n2)nc1 [Complex 4, [Zn(pqx)Cl2]] | 94.9 ± 23.2 µM | 77.8 ± 6.51 µM | 3.5 ± 0.3 µM | negligible cytotoxic effects | – | ~ 12 fold
